In paper PMC5815658 (Journal of Medicinal Chemistry, 2017):
Converted amounts (≈) assume the structure as drawn. “Also recorded” adds a separate entry of the source. Read-outs that look alike come from different tables or passages of the source. Peptide text beside a SMILES is read from it. * marks the point of attachment. Cbz = O=C(OCc1ccccc1)*

Tests used:
[1] = PDP aqueous stability protocol; settings: for half-life at 100 µM: phosphate buffer (PBS)
[2] = target: T1, pirin (Homo sapiens, UniProt O00625); assay: Pirin SPR (surface plasmon resonance) binding; settings: for Measured Rmax/Theoretical Rmax: SPR
T1 sequence (O00625 1-290): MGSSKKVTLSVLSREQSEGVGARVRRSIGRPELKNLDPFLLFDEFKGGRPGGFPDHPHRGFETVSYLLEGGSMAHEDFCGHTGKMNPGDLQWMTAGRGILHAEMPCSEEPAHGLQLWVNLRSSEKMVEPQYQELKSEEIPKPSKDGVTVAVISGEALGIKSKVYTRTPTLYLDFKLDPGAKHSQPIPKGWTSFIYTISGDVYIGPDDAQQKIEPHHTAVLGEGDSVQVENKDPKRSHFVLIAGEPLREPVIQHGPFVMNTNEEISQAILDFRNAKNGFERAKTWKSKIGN

[3] = target: T2, pirin protein in SK-OV-3 human ovarian cancer cells (Homo sapiens, UniProt O00625); assay: Pirin depletion in SK-OV-3 cells (immunoblot / capillary electrophoresis immunoassay); type: cell-based
T2 construct: endogenous in cells; host or cells: SK-OV-3
T2 sequence (O00625 1-290): T1 sequence (O00625 1-290)
Protocol: (§1) in vivo in athymic mice to increase its tumorigenicity and reliability as a xenograft, and used within 10 passages of banked stocks.
(§2) Prior to use, the cells were analyzed by short tandem repeat (STR) profiling. Polymorphic STR loci were amplified using a polymerase chain reaction (PCR) primer set. The PCR product (each locus being labelled with a different fluorophore) was analyzed simultaneously with size standards using automated fluorescent detection. The number of repeats at 10 different loci (as recommended by the American Type Culture Collection, ATCC) was used to define the STR profile and this was cross-referenced with online databases to confirm authenticity. […]
(§3) the ATCC reference line (LGC Promochem, UK). […]
(§4) nested PCR protocol (Venor GeM kit, Minerva Biolabs, Germany). Cells were grown in DMEM/10 % FCS, 2 mM glutamine and nonessential amino acids in 5 % CO2.
(§5) SK-OV-3 cells were treated as for each experimental condition. Cells were harvested and lysed by scraping in urea lysis buffer (20 mM HEPES pH 8.0, 9 M urea, 1 mM sodium orthovanadate, 2.5 mM sodium pyrophosphate, 1 mM β-glycerophosphate). […]
(§6) of samples was determined using a bicinchoninic acid (BCA) protein assay kit (Thermo Fisher Scientific). Western blotting was carried out as previously described.10 Pirin and GAPDH antibodies were obtained from Abcam (ab157212) and Merck […]
(§7) Samples were treated, harvested and lysed as described above. A total of 5 μL of 0.2 mg/mL protein was loaded into plates and capillary western analysis was carried out according to the manufacturer’s instructions (ProteinSimple WES). The data was analyzed with the Compass software (ProteinSimple).
(§8) Sigma-Aldrich and Cell Signaling Technology, respectively.
(§9) 10 Sharp SY, Boxall K, Rowlands M, Prodromou C, Roe SM, Maloney A, Powers M, Clarke PA, Box G, Sanderson S, Patterson L, Matthews TP, Cheung KM, Ball K, Hayes A, Raynaud F, Marais R, Pearl L, Eccles S, Aherne W, McDonald E, Workman P. In vitro biological characterization of a novel, synthetic diaryl pyrazole resorcinol class of heat shock protein 90 inhibitors.

[4] = target: T3, CRBN-DDB1 complex (Homo sapiens, UniProt Q96SW2); assay: CRBN/DDB1 fluorescence polarization competition assay; type: binding; settings: for Ki: calculated from geometric mean CRBN-DDB1 IC50 and FP-probe KD
T3 construct: His6-ZZ-HRV3C (N); made in house; host or cells: Sf9 insect cells (baculovirus co-infection)
Protocol: CRBN/DDB1 Fluorescence Polarization Assay […]
Unless otherwise stated, the aqueous assay buffer contained 0.02 M HEPES((4-(2-hydroxyethyl)-1-piperazineethanesulfonic acid)) pH 8.0, 0.15 M NaCl, 0.5 mM TCEP ((tris(2-carboxyethyl)phosphine)), 0.05% Tween 20. The assay was conducted using 384 well black plates (ProxiPlate F Plus, Perkin-Elmer, Massachusetts, USA).
Plate Reader. […] Fluorescence […]
polarization was measured in units of millipolarization (mP) and are background corrected. Data were plotted and analyzed using […]
All experiments were performed in triplicate unless otherwise stated. Values are quoted as the geometric […]
Each graph is a representative example of a single biological repeat unless otherwise stated.
CRBN/DDB1 Protein Expression & Purification
Protein expression and purification methods adapted from Lopez-Girona et al.5 Full length human CRBN (accession number NM016302) was amplified by PCR & inserted downstream of the polyhedrin promoter of a pFBDM expression vector which had been modified to introduce a N-terminal His6-ZZ-HRV3C tag. Full length human DDB1 (accession number NM001923) was amplified by PCR with primers which introduced a C-terminal StrepTag and inserted downstream of the p10 promoter of a separate pFBDM expression vector. Baculoviruses were generated according to Bac-to-Bac protocols (Invitrogen) and used to co-infect Sf9 cells grown @ 27 °C in shaker flasks using Insect-XPRESS media (Lonza). Cells were harvested 48 hours post infection and frozen. For purification, pellets were thawed & resuspended in 5 volumes of Histrap buffer A (see below) and lysed […]
Superdex 200 (HiLoad 26/600), ResourceQ (6 mL) and finally a second Superdex 200 (HiLoad 26/600) column. All columns were from GE Healthcare and all purification steps were performed @ 4 °C. HisTrap buffer A: 50mM Tris (2-Amino-2-(hydroxymethyl)propane-1,3-diol), 500mM NaCl, 0.5mM TCEP ((tris(2-carboxyethyl)phosphine), 5% glycerol, pH 8.0. HisTrap Buffer B: + 250 mM imidazole. Superdex 200 buffer: 50mM Tris, 200mM NaCl, 0.5mM TCEP, 5% glycerol, pH 8.0. Resource Q buffer A: 50mM Tris, 0.5mM TCEP, 5% Glycerol, pH8.0. Resource Q buffer B + 1M NaCl.
California, USA) to prepare CRBN/DDB1 concentrations from 0.1 to 500 nM in 10 µL final assay volume containing 5 nM FP- […]
point prior to analysis. The KD was calculated using non-linear regression and a one-site specific binding model.
Analysis of competition assay FP-probe bound fraction […]
fb=probe bound fraction, KD=probe dissociation constant, L0=probe concentration, R0=protein concentration, Ki=ligand […]
CRBN/DDB1 Competition Assay
Compounds as solutions in DMSO were dispensed using an ECHO 550 Liquid Handler (Labcyte Inc).
Tracer controls (5 nM FP-probe S18 assay buffer only) and bound tracer controls (5 nM and 80 nM CRBN/DDB1) were included on each assay plate . Plates were incubated overnight at 4 °C before warming to room temperature and fluorescence polarization measured using an EnVision plate reader (Perkin -Elmer, Massachusetts, USA). IC 50 values […]
Table S2. CRBN/DDB1 Control Compounds

[5] = Kinetic solubility determination by RP-HPLC; settings: PBS, pH 7.4, aqueous buffer, kinetic from dmso stock
[6] = LogD7.4 determination by RP-HPLC; settings: pH 7.4
[7] = system: proteasome; assay: Rescue of PDP 16 pirin depletion by proteasome inhibitor in SK-OV-3 cells; type: cell-based, human; settings: 500 nM, 4 h pretreatment, then PDP 16 24 h
Protocol: as §1, §2, §3, §4, §5
of samples was determined using a bicinchoninic acid (BCA) protein assay kit (Thermo Fisher Scientific). […]
Samples were treated, harvested and lysed as described above. […] The data was analyzed with the Compass software (ProteinSimple). […]

[8] = target: T1, pirin; assay: Intracellular competition: rescue of PDP 16 pirin depletion by pirin ligands in SK-OV-3 cells; type: cell-based; parameters: endogenous in cells; host or cells: SK-OV-3
Protocol: as §1, §2, §3, §4, §5, §6, §7, §8, §9

[9] = Pirin SPR KD, equilibrium analysis, one site specific binding model, geometric mean n = 3
[10] = Pirin SPR KD, representative single repeat, best-fit value, one site specific binding
[11] = Pirin SPR pKD, mean of 3 values (unrounded), column statistics
[12] = Pirin SPR pKD±SEM, n = 3 independent biological repeats
[13] = CRBN/DDB1 FP IC50, single repeat N=2, best-fit value, variable slope four parameters
[14] = best-fit value, variable slope four parameters, read-out: CRBN/DDB1 FP IC50, single repeat N=1
[15] = best-fit value, variable slope four parameters, read-out: CRBN/DDB1 FP IC50, single repeat N=3
[16] = displacement of thalidomide derived fluorescent probe, geometric mean n = 3, read-out: CRBN/DDB1 FP IC50
[17] = 4 h pretreatment, then PDP 16 for 2 h, SK-OV-3, Figure 4

| SMILES | Kd [2, 9] | Kd [2, 10] | Kd [2, 11] | Kd [2, 12] | Measured Rmax/Theoretical Rmax [2] | IC50 [4, 13] | IC50 [4, 14] | IC50 [4, 15] | Ki [4] | IC50 [4, 16] | solubility kinetic at 120 min [5] | chromatographic logD [6] | other results |
| --- | --- | --- | --- | --- | --- | --- | --- | --- | --- | --- | --- | --- | --- |
| Cc1ccc(NC(=O)c2ccc3c(c2)OCCO3)cc1NC(=O)c1ccc2nc(OCCCC(=O)NCCOCCNC(=O)COc3cccc4c3C(=O)N(C3CCC(=O)NC3=O)C4=O)ccc2c1 (centres unmarked) [PDP 3, N-(5-(2,3-Dihydrobenzo[b][1,4]dioxine-6-carboxamido)-2-methylphenyl)-2-(4-((2-(2-(2-((2-(2,6-dioxopiperidin-3-yl)-1,3-dioxoisoindolin-4-yl)oxy)acetamido)ethoxy)ethyl)amino)-4-oxobutoxy)quinoline-6-carboxamide] | 110 nM | 111 nM | 108 nM | 107 nM | 0.44 | 496 nM | 1510 nM | 811 nM | 220 nM | 850 nM | 1 µM (≈ 0.942 µg/mL) | 2.2 | half-life at 100 µM ([1]; pH 7.4): 7.2 h; Effects on SK-OV-3 cells ([3]; >1 μM, >48 h, data not shown): no measurable effects on the cancer cells; IC50 ([4]; column statistics, read-out: CRBN/DDB1 FP pIC50, mean of 3 values (unrounded) (converted)): 847 nM |
| O=C1CCC(N2C(=O)c3cccc(OCCOCCOCCN4CCN(Cc5ccc6cc(C(=O)Nc7cc(NC(=O)c8cccc9c8OCCO9)ccc7Cl)ccc6n5)CC4)c3C2=O)C(=O)N1 (centres unmarked) [PDP 21, N-(2-Chloro-5-(2,3-dihydrobenzo[b][1,4]dioxine-5-carboxamido)phenyl)-2-((4-(2-(2-(2-((2-(2,6-dioxopiperidin-3-yl)-1,3-dioxoisoindolin-4-yl)oxy)ethoxy)ethoxy)ethyl)piperazin-1-yl)methyl)quinoline-6-carboxamide] | > 1300 nM | – | – | > 1260 nM | – | 277 nM | 590 nM | 444 nM | 98 nM | 420 nM | 2 µM (≈ 1.89 µg/mL) | 2.9 | half-life at 100 µM ([1]; pH 7.4, Half-life (aqueous stability), 37 °C, pH 7.4 phosphate buffer): 2.8 h; Pirin depletion by negative control ([3]; SK-OV-3 cells, 24 h treatment, Western blot, Figure S19): does not deplete pirin protein; also recorded: no pirin depletion |
| CC(C)C[C@@H](C=O)NC(=O)[C@H](CC(C)C)NC(=O)[C@H](CC(C)C)NC(=O)OCc1ccccc1 [MG132] (Cbz-Leu-Leu-Leu-aldehyde) | – | – | – | – | – | – | – | – | – | – | – | – | Rescue of pirin degradation by MG132 preincubation [7]: rescue |
| Cc1ccc(NC(=O)c2ccc3c(c2)OCCO3)cc1NC(=O)c1ccc2nc(OCCN3CCCC3)ccc2c1 [chemical probe 1] | – | – | – | – | – | – | – | – | – | – | – | – | Stability in pH 7.4 phosphate buffer ([1]; 37 °C, pH 7.4 phosphate buffer): no instability |
| CCN1CCN(Cc2ccc3cc(C(=O)Nc4cc(NC(=O)c5ccc6c(c5)OCCO6)ccc4Cl)ccc3n2)CC1 [chlorobisamide 22, N-(2-Chloro-5-(2,3-dihydrobenzo[b][1,4]dioxine-6-carboxamido)phenyl)-2-((4-ethylpiperazin-1-yl)methyl)quinoline-6-carboxamide] | – | 19.9 nM | 20.8 nM | 20.9 nM | 0.29 | – | – | – | – | – | – | – | Concentration giving complete rescue of pirin expression [8, 17]: 1 µM; Rescue of pirin expression following treatment with PDP 16 [8, 17]: concentration-dependent rescue of pirin expression; Competition of PDP 16 at 6 h exposure ([8]; concentration > 1 μM, data not shown): unsuccessful |
